Our source for the Ki values is ChEMBL document CHEMBL1137219, “Carbonic anhydrase inhibitors: the first on-resin screening of a 4-sulfamoylphenylthiourea library” (J Med Chem, 2004).

Experiment [1] has as its target Carbonic anhydrase 1 (Homo sapiens, UniProt P00915).
Description: Inhibitory activity against human Carbonic anhydrase I
Experiment [2] has as its target Carbonic anhydrase 2 (Homo sapiens, UniProt P00918).
Description: Inhibitory activity against human Carbonic anhydrase II

Each structure is given as a SMILES string.

Sequence of Carbonic anhydrase 1 (P00915 whole entry): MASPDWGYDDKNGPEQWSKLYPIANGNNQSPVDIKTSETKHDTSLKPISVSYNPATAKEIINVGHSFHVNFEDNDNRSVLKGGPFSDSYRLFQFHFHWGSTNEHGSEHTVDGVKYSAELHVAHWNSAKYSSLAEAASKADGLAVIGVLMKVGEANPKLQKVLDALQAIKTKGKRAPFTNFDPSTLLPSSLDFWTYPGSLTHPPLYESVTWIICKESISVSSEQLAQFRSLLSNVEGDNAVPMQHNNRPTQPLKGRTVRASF

As usually defined, the Ki is the dissociation constant of the complex between target and ligand, obtained from inhibition or displacement. On to `CNC(=O)COC(=O)[C@H](CCSC)NC(=S)Nc1ccc(S(N)(=O)=O)cc1`, for which the figures for the inhibition constant (Ki) in experiment [1] and in experiment [2] were 31 nM and 5 nM, respectively.
For `CC(C)[C@H](NC(=S)Nc1ccc(S(N)(=O)=O)cc1)C(=O)O`, in that order: 23 nM and 5 nM.
With `CSCC[C@H](/N=C(\S)Nc1ccc(S(N)(=O)=O)cc1)C(=O)O`, the values for the inhibitory constant (Ki) in experiment [1] and in experiment [2] were 27 nM and 4 nM, respectively.
Consider `NS(=O)(=O)c1ccc(N/C(S)=N/[C@@H](Cc2ccccc2)C(=O)O)cc1`, for which the Ki is 30 nM in experiment [1] and 6 nM in experiment [2].
As for `CNC(=O)COC(=O)[C@H](Cc1ccccc1)NC(=S)Nc1ccc(S(N)(=O)=O)cc1`, the values for the inhibition constant Ki in experiment [1] and in experiment [2] were 42 nM and 8 nM, respectively.
Consider `CC[C@H](C)[C@H](NC(=S)Nc1ccc(S(N)(=O)=O)cc1)C(=O)O`, for which the results for the Ki in experiment [1] and in experiment [2] were 22 nM and 4 nM, respectively.
`CNC(=O)COC(=O)[C@@H](/N=C(\S)Nc1ccc(S(N)(=O)=O)cc1)C(C)C`: the Ki in experiment [1] was 31 nM; in experiment [2], 5 nM.
For `CNC(=O)COC(=O)[C@H](CC(N)=O)/N=C(\S)Nc1ccc(S(N)(=O)=O)cc1`, in that order: 29 nM and 4 nM.
Take `CC[C@H](C)[C@H](/N=C(\S)Nc1ccc(S(N)(=O)=O)cc1)C(=O)OCC(=O)NC`: the inhibition constant (Ki) turned out to be 25 nM in experiment [1] and 5 nM in experiment [2].
On the same counts, the results for `CNC(=O)COc1ccc(COC(=O)[C@H](C)NC(=S)Nc2ccc(S(N)(=O)=O)cc2)cc1` are 58 nM and 16 nM.
On the same counts, the results for `CNC(=O)COC(=O)[C@H](CC(C)C)/N=C(\S)Nc1ccc(S(N)(=O)=O)cc1` are 23 nM and 7 nM.
With `CC(C)C[C@H](NC(=S)Nc1ccc(S(N)(=O)=O)cc1)C(=O)O`, the inhibition constant Ki in experiment [1] was 21 nM; in experiment [2] it was 5 nM.
Consider `CNC(=O)COC(=O)[C@@H]1CCCN1/C(S)=N\c1ccc(S(N)(=O)=O)cc1`, for which the Ki in experiment [1] was 197 nM; in experiment [2], 46 nM.
For `NS(=O)(=O)c1ccc(NC(=S)N[C@@H](Cc2c[nH]c3ccccc23)C(=O)O)cc1`, in that order: 47 nM and 11 nM.
For the compound `NC(=O)CC[C@H](NC(=S)Nc1ccc(S(N)(=O)=O)cc1)C(=O)O`, the Ki in experiment [1] was 40 nM; in experiment [2], 9 nM.
In the case of `NC(=O)C[C@H](/N=C(\S)Nc1ccc(S(N)(=O)=O)cc1)C(=O)O`, the inhibition constant (Ki) was found to be 27 nM in experiment [1] and 6 nM in experiment [2].
`C[C@H](NC(=S)Nc1ccc(S(N)(=O)=O)cc1)C(=O)O`: the Ki in experiment [1] stood at 54 nM; in experiment [2], 12 nM.
Take `NS(=O)(=O)c1ccc(NC(=S)N2CCC[C@H]2C(=O)O)cc1`: the inhibitory constant (Ki) in experiment [1] turned out to be 110 nM; in experiment [2], 25 nM.
As to `CNC(=O)COC(=O)[C@H](CCC(N)=O)/N=C(\S)Nc1ccc(S(N)(=O)=O)cc1`, the figures for the Ki in experiment [1] and in experiment [2] were 53 nM and 11 nM, respectively.
As to `CNC(=O)COC(=O)[C@H](Cc1c[nH]c2ccccc12)NC(=S)Nc1ccc(S(N)(=O)=O)cc1`, the Ki was found to be 64 nM in experiment [1] and 20 nM in experiment [2].
